Experimental data reported in US8138166B2, “Method to induce fatty liver in animal” (Taipei Medical University, priority 2010, dated 2012).

Assays:
liver [1] = experiment: Liver histopathology (H&E staining) of SD rats fed high fat diet and injected with rotenone; format: in vivo; settings: experimental group: 60% high fat diet + rotenone 2.5 mg/kg/day i.p., 8 weeks
Excerpt: (§1) SD rats are selected to use as the laboratory animals in the present embodiment. All SD rats are bred at the cages, and adequate feeds and water are given during the adaptive period and the experimental period. After the adaptive period, the SD rats are randomly divided into three groups concluding a control group, an experimental group, and a contrast group, and there are 6 SD rats in each group. In the control group, the SD rats are fed with AIN-93M diet. The SD rats in the experimental group are fed with the modified AIN-93M diet whose fat calorie is accounted for 60% of total calorie thereof, and the mitochondrial inhibitor (rotenone) is injected into the SD rats via an intraperitoneal injection once every two days. The dosage of the rotenone is about 2.5 mg/kg/day. The components of the diet and the fat percentage in the contrast group and the experimental group are the same. Normal saline is injected into the SD rats in the contrast group via the intraperitoneal injection to differentiate from the experimental group. After feeding 8 weeks, the SD rats in each group are sacrificed to collect arteria coeliaca blood and to obtain livers after perfusing 0.9% normal saline thereinto for determining the pathological analysis of the liver, the blood biochemical analysis and the liver biochemical analysis.
Livers of the SD rats in each group are all stained by H&E staining. […]

Visceral fat weight = format: in vivo, SD rats; settings: experimental group: 60% high fat diet + rotenone 2.5 mg/kg/day i.p. once every two days, 8 weeks; epididymis and perirenal adipose tissue
Excerpt: as §1, with “analysis. […]” for “analysis.”

[2] = Blood biochemical analysis and liver function index; format: in vivo, SD rats; settings: experimental group: 60% high fat diet + rotenone i.p., 8 weeks
Excerpt: as §1
The blood biochemical analyses of cholesterol, triglyceride, and non-esterified fatty acids are examined. The liver function indexes of aspartate aminotransferase (AST) and alanine aminotransferase (ALT) are also analyzed.

liver [3] = experiment: Liver biochemical analysis (liver lipids, TBARS, TNF-α, hydroxyproline); format: in vivo, SD rats; settings: experimental group: 60% high fat diet + rotenone i.p., 8 weeks
Excerpt: as §1
The lipid extracts are obtained from the livers of the SD rats in each group to analyze the contents of total cholesterol, triglyceride, and non-esterified fatty acids, as shown below Table 2.
Additionally, if oxidative stress, such as reactive oxygen species (ROS), is increased in vivo, lipid peroxides may be increased. Because the half life of the ROS is shorter than that of the lipid peroxides, the lipid peroxides, such as thiobarbituric acid-reactive-substance (TBARS), are used as the oxidative stress index. The livers of the SD rats in each group are respectively prepared to obtain homogeneous liquids for analyzing the concentration of the TBARS by a fluorophotometer. […] The concentrations of the TBARS in the control group, the experimental group and the contrast group are respectively 0.51±0.05, 2.18±0.19 and 1.15±0.09 μM/mg protein. That means in the experimental group, the oxidative stress in the livers of the SD rats is highest.
In the NAFLD progression, when high oxidative stress is existed in a liver for a long time, inflammatory cytokines, such as tumor necrosis factor-alpha (TNF-α), are increased. After the SD rats are sacrificed, the concentration of the TNF-α is determined to analyze whether the inflammatory response is induced or not. […] The concentrations of TNF-α in the control group, the experimental group, and the contrast group are respectively 13.96±1.05, 21.34±0.77, and 19.51±1.11 pg/mg protein. Following the results as set forth, the livers of rats in the experimental group have the inflammatory response. […] But, once livers are existed in high oxidative stress, the liver injuries thereof from simple steatosis to necrosis or fibrosis are performed. Therefore, the collagen index (i.e. the fibrosis index), hydroxyproline, in the livers should be determined. The concentrations of the hydroxyproline in the control group, the experimental group, and the contrast group are 3.32±1.05, 6.68±0.77, and 4.05±1.11 μg/mg protein, respectively. It indicates the concentration of the hydroxyproline in the experimental group is higher than those of in the control group and the contrast group.

[4] = tested on: NADH cytochrome c reductase (NCCR), mitochondrial complex I and III; experiment: NCCR activity in hepatocytes; format: in vivo, SD rats; settings: experimental group: 60% high fat diet + rotenone i.p., 8 weeks
Excerpt: as §1
(§2) Rotenone is hydrophobic, and can diffuse to organelles including mitochondria. […]

[5] = tested on: succinate cytochrome c reductase (SCCR), mitochondrial complex II and III; experiment: SCCR activity in hepatocytes; format: in vivo, SD rats; settings: experimental group: 60% high fat diet + rotenone i.p., 8 weeks
Excerpt: as §1, §2

[6] = tested on: cytochrome c oxidase (CCO), mitochondrial complex IV; experiment: CCO activity in hepatocytes; format: in vivo, SD rats; settings: experimental group: 60% high fat diet + rotenone i.p., 8 weeks
Excerpt: as §1, §2

mitochondrial complex I = experiment: Mitochondrial complex I activity inferred from NCCR and SCCR activity; format: in vivo, SD rats; settings: experimental group: 60% high fat diet + rotenone i.p., 8 weeks; combined NCCR and SCCR results
Excerpt: as §1, §2

## C=C(C)[C@H]1Cc2c(ccc3c2O[C@@H]2COc4cc(OC)c(OC)cc4[C@@H]2C3=O)O1 [rotenone]
Liver [1]
  cell morphology (H&E staining of liver): lipid drops and ballooning degeneration
Visceral fat weight
  visceral fat weight: 51.28±3.41 grams
[2]
  ALT: 39.4 ± 2.61 IU/L
  AST: 90.1 ± 13.68 IU/L
  Cholesterol (blood): 73.4 ± 7.61 mg/dL
  Triglyceride (blood): 60.1 ± 10.15 mg/dL
Liver [3]
  concentration of TNF-α: 21.34±0.77 pg/mg protein
Liver [3]; collagen/fibrosis index
  concentration of hydroxyproline (liver): 6.68±0.77 μg/mg protein
Liver [3]; liver homogenate, fluorophotometer
  concentration of TBARS (liver): 2.18±0.19 μM/mg protein
Liver [3]; liver lipid extract
  Non-esterified fatty acids (liver): 5.02 ± 0.38 µmol/g
  Total cholesterol (liver): 131.74 ± 5.30 mg/dL
  Triglyceride (liver): 6.78 ± 0.55 mg/dL
[4]
  NCCR activity: 0.68 ± 0.26 nmol/cytochrome c reduced/min/mg protein
[5]
  SCCR activity: 0.51 ± 0.05 nmol/cytochrome c reduced/min/mg protein
[6]
  CCO activity: 5.57 ± 2.88 nmol/cytochrome c oxidized/min/mg protein
Mitochondrial complex I
  mitochondrial complex I activity versus control group and contrast group: lower
